Reference: patent US12502430B2, “Compound for photodynamic therapy of cancer, composition including same, and method for photodynamic therapy of cancer” (Pukyong National University Industry-University Cooperation …, priority 2021, dated 2025)
pIC50: −log10 of the molar value.

Tests used:
HeLa cells [1] = assay: MTT photo/dark cytotoxicity assay with blue light irradiation; format: cell-based; conditions: for cell viability (dark cytotoxicity): MTT, FIGS. 3A and 3B, 20 μM printed for BS; for pIC50: normoxia, after blue light irradiation, read-out: IC50 (photocytotoxicity); for cancer cell toxicity without light: working concentration; for cell death under blue light irradiation: both normoxia and hypoxia
Experimental: Cell toxicity was evaluated by treating HeLa cells with 10 μM NS and BS solutions, respectively, incubating cells for 30 minutes, and then irradiating blue light (blue LED, 80 mW/cm^2) for 5 minutes. The results are shown in FIGS. 3A to 3C and FIGS. 4A to 4D. Based on the ^1O2 generation efficiency and photostability of BS and NS of FIGS. 3A to 3C, photo/dark cytotoxicity to HeLa cells was observed using MTT (traditional methyl thiazolytetralium) assay. FIGS. 3A and 3B show viability of 85% in BS (20 μM) and 97% in NS. The introduction of the C═S bond leads to a highly efficient ISC process, improving the generation of type I and type II ROS, thereby resulting in high ^1O2 quantum yield as well as O2· production. […] NS induces higher photocytotoxicity than BS by higher oxygen quantum yield and may be utilized as a phototheranostic agent with a low IC50 value in normoxia. Further, in FIG. 3C, NS (3 μM) has a cell viability of 29.6% under a normoxia condition and a cell viability of 36.5% under a hypoxia condition (mixed gas: 5% CO2, 1% O2 and 94% N2) so as to effectively induce photocytotoxicity to HeLa cells.

[2] = Response and selectivity for detection of OCl− (UV-Vis and fluorescence); conditions: 20 μM; for isosbestic point in UV-vis titration with OCl−: NaClO 0 to 75 μM, PBS pH 7.4 with 50% THF; for selectivity for OCl− among ROS, RNS and metal ions: OCl− 60 μM, PBS pH 7.4/THF (5/5); for fluorescence wavelength at which intensity was read: PBS buffer 10 mM pH 7.4 containing 50% THF
Experimental: Fluorescence intensity ratios were measured for each of BS and NS in […] (10 mM, pH=7.4) containing 50% THF at the presence of OCl^− (60 μM), ROO·(1 mM), NO·(1 mM), H2O2 (1 mM), TBHP (1 mM), ONOO^− (100 μM), ·OH (200 μM) and various metal ions (200 μM): Ag^+, Hg^2+, Fe^2+, and other ions (Ni^2+, Cu^2+, Zn^2+, Cd^2+, Mg^2+, Ca^2+, Cr^3+, Mn^2+, Fe^3+, Li^+, Na^+, K^+, Cs^+). Recognition of ROS, RNS and metal cations by BS and NS was investigated through colorimetric changes, UV absorption and fluorescence emission changes in PBS 7.4 pH/THF (5/5).
Similarly, in FIG. 6C, the broad absorption band decreases in the 420 to 600 nm range of the NS solution, whereas the absorption band at 370 nm gradually increases with OCI^−-addition (a characteristic of NO).
In Scheme 3, the photophysical change by oxidative desulfurization from the C═S groups of BS and NS to the corresponding C═O groups of BO and NO by hypochlorous acid (OCl^−) may be shown.

[3] = UV-Vis absorption and fluorescence emission spectroscopy; format: physicochemical; conditions: in Toluene
Text: The photophysical properties of the collected products were studied by UV-Vis absorption and fluorescence emission spectroscopy, and the results are shown in FIGS. 1A to 1B and Table 1. In the UV-Vis absorption spectrum, BO and NO show absorption peaks in the region of about 380 nm, and BS and NS show absorption maximum values in the region of about 435 nm. The difference in the absorption peak may be confirmed from the shape difference of the HOMO-LUMO of FIG. 2A.

HeLa cells [4] = assay: Bio-imaging of OCl− by confocal fluorescence microscopy; format: cell-based; conditions: 10 μM, 10 minutes, then OCl− 10 minutes
Experimental: HeLa cells were treated with 10 μM NS and BS solutions, respectively. Then, HeLa cells were incubated for 10 minutes and then incubated with hypochlorous acid (OCl^−) for 10 minutes to perform hypochlorous acid (OCl^−) detection fluorescence signal and bioimaging.

HeLa cells [5] = assay: DCFH-DA ROS fluorescence imaging after blue LED irradiation; format: cell-based; conditions: 5 μM, DCFH-DA 10 μM, blue LED 5 minutes
Experimental: FIG. 4A is a diagram illustrating a fluorescence image of live HeLa cells after incubation in BS (5 μM) and DCFH-DA (10 μM) for 30 minutes, and FIG. 4C is a diagram illustrating a BS fluorescence image after light irradiation under blue LED light for 5 minutes thereafter (λ=473 nm and λem=490 to 590 nm) according to an example embodiment of the present disclosure in which these compounds were dissolved in DMSO.
FIG. 4B is a diagram illustrating s a fluorescence image of live HeLa cells after incubation in NS (5 μM) and DCFH-DA (10 μM) for 30 minutes according to an example embodiment of the present disclosure, and FIG. 4D is a diagram illustrating an NS fluorescence image after light irradiation under blue LED light for 5 minutes thereafter (λex=473 nm and λem=490 to 590 nm) in which these compounds were dissolved in DMSO.
Finally, their fluorescence is completely recovered after hypochlorite anion (OCl^−) treatment using the OCl^− probe of live HeLa cells. […] It may be confirmed that the C═S group plays an important role in the generation of type I ROS of previously unreported photosensitizers (PS).

[6] = Singlet oxygen quantum yield determination; format: physicochemical; conditions: determined with respect to Ru(bpy)3^2+; — = not observed
Text: Compounds BO and NO show strong fluorescence (ΦFBO=0.71, ΦF NO=0.28), but ISC is inefficient due to weak spin-orbit coupling (SOC).

Row | SMILES | cell viability (dark cytotoxicity) (HeLa cells [1]; HeLa cells) | pIC50 (HeLa cells [1]; HeLa cells) | cancer cell toxicity without light (HeLa cells [1]; HeLa cells) | cell death under blue light irradiation (HeLa cells [1]) | isosbestic point in UV-vis titration with OCl− [2] | selectivity for OCl− among ROS, RNS and metal ions [2] | fluorescence wavelength at which intensity was read [2] | ΔV (Stock shift) [3] | ε × 10^3 [3] | λems [3] | intracellular OCl− detection (HeLa cells [4]) | ROS generation (DCFH-DA green signal) (HeLa cells [5]) | ΦΔ (singlet oxygen quantum yield) [6] | ΦF (fluorescence quantum yield) ([3]; Rhodamine 6G as the standard, — = not observed) | cell viability, hypoxia (HeLa cells [1]; HeLa cells, 3 μM, hypoxia condition (5% CO2, 1% O2 and 94% N2), light) | cell viability, normoxia (HeLa cells [1]; HeLa cells, 3 μM, normoxia condition, light)
1 | S=c1c2cccc3cccc(c32)c2nc3ccccc3n12 [BS] | 85% | 5.24 | negligible cancer cell toxicity | rapidly induce cell death | 403 nm | high selectivity | 505 nm | 66 nm | 10.85 × 10^3 M^−1 cm^−1 | 495 nm | adequately detect OCl^− | may generate ROS | 0.66 |  |  | 
2 | O=c1c2cccc3cccc(c32)c2nc3ccccc3n12 [BO, reference compound] |  |  |  |  |  |  |  | 105 nm | 8.54 × 10^3 M^−1 cm^−1 | 488 nm |  |  |  | 0.71 |  | 
3 | S=c1c2cccc3cccc(c32)c2nc3cc4ccccc4cc3n12 [NS] | 97% | 5.99 | negligible cancer cell toxicity | rapidly induce cell death | 411 nm | high selectivity | 559 nm | 110 nm | 17.87 × 10^3 M^−1 cm^−1 | 551 nm | adequately detect OCl^− | may generate ROS | 0.81 |  | 36.5% | 29.6%
